Measurements published in US20160287741A1, “METASTABLE SILVER NANOPARTICLE COMPOSITES WITH COLOR INDICATING PROPERTIES” (SIENNA LABS, INC., priority 2013, published 2016).

Tests used:
[1] = EPA Reference Dose for Chronic Oral Exposure (RfD) for silver and intravenous conversion; design: species or system human population
Excerpt: We estimate less than half of the silver has diffused from the silicone into the IV fluid over 7 days based on the silver nanoplate plasmonic peak wavelength, which corresponds directly with the diameter decrease in the etched silver nanoplates. Even if all of the silver had diffused from the silicone into the IV fluid during 7 days, this would correspond to a daily body absorption of 1.6 micrograms per day. In the United States, the EPA has set a Reference Dose for Chronic Oral Exposure (RfD) of 5 micgrams per Kg per day for silver. RfD is the daily exposure to the human population (including sensitive subgroups) that is likely to be without an appreciable risk of deleterious effects during a lifetime. Oral dose is estimated based on a conversion of 4% absorption of dietary silver into the body. Thus, an intravenous RfD would be approximately 0.2 micrograms per day of silver. For a 70 Kg person, this corresponds to 14 micrograms per day.

[2] = EPA, United States; cited from earlier work
[3] = Gelled deodorant stick blends, silica stabilized vs non-stabilized nanoplates vs silver salt: settling, peak resonance shift, hue; format: physicochemical; details: Table A blends
Method: Gelled sticks with silver nanoplates were prepared by blending water, dipropylene glycol and propylene glycol components, heating the resulting blends to 85° C., adding the poloxamine to the heated blend and mixing until clear, adding the sodium stearate to the heated blends and again mixing until clear, cooling the blends to 75° C. and adding the 2-amino-2-methylpropan-1-ol with agitation, cooling the blends to 71-73° C., and mixing in the remaining ingredients. Non-stabilized silver nanoplates and silica stabilized silver nanoplates were prepared according to the methods in example 1 and 2 respectively and added into separate blends. A silver salt was added to a separate blend. The blends were then allowed to cool to room temperature and gel.
A 100 microliter aliquot of from non-stabilized and silica stabilized silver blend solutions was added to a 96 well plate and allowed to cool to room temperature and gel.

[4] = Gelled deodorant stick blends, PVP nanoplates with or without borate vs silver salt: settling, peak resonance shift, hue; format: physicochemical; details: Table B blends
Method: Gelled sticks with silver nanoplates were prepared by blending water, dipropylene glycol and propylene glycol components, heating the resulting blends to 85° C., adding the poloxamine to the heated blend and mixing until clear, adding the sodium stearate to the heated blends and again mixing until clear, cooling the blends to 75° C. and adding the 2-amino-2-methylpropan-1-ol with agitation, cooling the blends to 71-73° C., and then mixing in the remaining ingredients. PVP and borate stabilized silver nanoplates were prepared according to the methods in example 1 with the addition of PVP and borate into the mixture after synthesis. In one blend was added borate prior to adding silver nanoplates, in another blend borate was not added. A silver salt was added to a separate blend with no borate. The blends were then allowed to cool to room temperature and gel.
A 100 microliter aliquot from non-stabilized and silica stabilized silver blend solutions was added to a 96 well plate and allowed to cool to room temperature and gel.

Structure (SMILES)	intravenous RfD for a 70 Kg person ([1]; 70 Kg person)	intravenous RfD ([1]; conversion of 4% absorption of dietary silver)	Reference Dose for Chronic Oral Exposure (RfD) [2]	settling in gelled deodorant blend [3]	settling in gelled deodorant blend [4]
[Ag] [silver]	14 micrograms per day	approximately 0.2 micrograms per day	5 micgrams per Kg per day	–	–
[Cl][Ag] [silver chloride, Silver Chloride]	–	–	–	exhibited settling	exhibited settling
